From patent publication US6653339B2, “Method of treating irritable bowel syndrome” (Pfizer Inc., priority 2001, dated 2003)

What was measured:
Assay type in all cases: in vivo, human
irritable bowel syndrome [1] = assay: Clinical Study 1, controlled (slow) release darifenacin once daily vs placebo in irritable bowel syndrome; settings: for Constipation % of patients reporting AEs corrected for placebo / Dry Mouth % of patients reporting AEs corrected for placebo / Global Rating % Reduction from baseline corrected for placebo / Loose Stool % Reduction from baseline corrected for placebo / Pain Score % Reduction from baseline corrected for placebo / Total AE % of patients reporting AEs corrected for placebo / Urgency % Reduction from baseline corrected for placebo / Vision % of patients reporting AEs corrected for placebo / Constipation % of patients reporting AEs / Dry Mouth % of patients reporting AEs / Global Rating % Reduction from baseline / Loose Stool % Reduction from baseline / Pain Score % Reduction from baseline / Total AE % of patients reporting AEs / Urgency % Reduction from baseline / Vision % of patients reporting AEs: Clinical Study 1, 12 weeks; for Constipation % of patients reporting AEs / Dry Mouth % of patients reporting AEs / Global Rating % Reduction from baseline / Loose Stool % Reduction from baseline / Pain Score % Reduction from baseline / Total AE % of patients reporting AEs / Urgency % Reduction from baseline / Vision % of patients reporting AEs: uncorrected
From the text: (§1) The invention may be illustrated by the following clinical studies wherein the treatment of irritable bowel syndrome using darifenacin administered as a once-daily controlled (slow) release formulation in accordance with the prior art is compared with treatment using darifenacin administered as a thrice daily immediate release formulation in accordance with the present invention. Specifically, Clinical Studies 1 and 2 used controlled (slow) release formulations of darifenacin administered once daily (od) and Clinical Study 3 used an immediate release formulation of darifenacin administered three times daily (tid).
(§2) During each clinical study, four efficacy measures of irritable bowel syndrome severity were measured, viz. ‘Pain Score’ (Average daily pain score, a composite of severity and number of days of pain), ‘Loose Stool’ (Number of days on which loose or watery stool occurred), ‘Urgency’ (Number of days on which urgency occured) and so-called ‘Global Rating’ (Patient rating of their condition taking into account all symptoms, 0=no problems). Adverse events (AE) such as constipation, dry mouth and visual abnormalities were also recorded.
Clinical Study 1 was a multi-centre, double-blind, randomised, placebo-controlled parallel group study in which three dose strengths of darifenacin of 3.75 mg, 7.5 mg and 15 mg dosed od were compared with placebo. Treatment lasted 12 weeks following a 2-week run-in period.
The controlled (slow) release dosage forms of darifenacin used in Clinical Studies 1 and 2 were 3.75 mg, 7.5 mg, 15.0 mg and 30.0 mg tablets having the following compositions: […]

irritable bowel syndrome [2] = assay: Clinical Study 3, immediate release darifenacin three times daily vs placebo in irritable bowel syndrome; settings: for Constipation % of patients reporting AEs corrected for placebo / Dry Mouth % of patients reporting AEs corrected for placebo / Global Rating % Reduction from baseline corrected for placebo / Loose Stool % Reduction from baseline corrected for placebo / Pain Score % Reduction from baseline corrected for placebo / Total AE % of patients reporting AEs corrected for placebo / Urgency % Reduction from baseline corrected for placebo / Vision % of patients reporting AEs corrected for placebo / Constipation % of patients reporting AEs / Dry Mouth % of patients reporting AEs / Global Rating % Reduction from baseline / Loose Stool % Reduction from baseline / Pain Score % Reduction from baseline / Total AE % of patients reporting AEs / Urgency % Reduction from baseline / Vision % of patients reporting AEs: Clinical Study 3, 12 weeks; for Constipation % of patients reporting AEs / Dry Mouth % of patients reporting AEs / Global Rating % Reduction from baseline / Loose Stool % Reduction from baseline / Pain Score % Reduction from baseline / Total AE % of patients reporting AEs / Urgency % Reduction from baseline / Vision % of patients reporting AEs: uncorrected
From the text: as §1, §2
Clinical Study 3 was a multi-centre, double-blind, randomised, placebo-controlled parallel group study in which three dose strengths of darifenacin 1.25, 2.5 and 5 mg dosed tid were compared with placebo. Treatment lasted 12 weeks following a 2-week run-in period.
The immediate release dosage forms of darifenacin used in Clinical Study 3 were 1.25 mg, 2.5 mg and 5.0 mg capsules having the following compositions in a Size 3 capsule shell: […]

[3] = Day 6 plasma concentrations of darifenacin, four-way crossover study in healthy male subjects; settings: 7.5 mg tid immediate release capsule vs 20 mg SR od matrix tablet, healthy volunteers
[4] = controlled release tablet 3.75 mg od
[5] = controlled release tablet 7.5 mg od
[6] = controlled release tablet 15 mg od
[7] = both controlled release od studies (Clinical Studies 1 and 2)
[8] = immediate release capsule 3 × 1.25 mg (tid)
[9] = immediate release capsule 3 × 2.5 mg (tid)
[10] = immediate release capsule 3 × 5.0 mg (tid)

## NC(=O)C(c1ccccc1)(c1ccccc1)[C@@H]1CCN(CCc2ccc3c(c2)CCO3)C1 [darifenacin]
Irritable bowel syndrome [1]; [4]
  Constipation % of patients reporting AEs corrected for placebo: 1.4%
  Dry Mouth % of patients reporting AEs corrected for placebo: 2.5%
  Global Rating % Reduction from baseline corrected for placebo: −2%
  Loose Stool % Reduction from baseline corrected for placebo: 4%
  Pain Score % Reduction from baseline corrected for placebo: −3%
  Total AE % of patients reporting AEs corrected for placebo: 2%
  Urgency % Reduction from baseline corrected for placebo: 18%
  Vision % of patients reporting AEs corrected for placebo: 5.4%
  Constipation % of patients reporting AEs: 7.2%
  Dry Mouth % of patients reporting AEs: 10.2%
  Global Rating % Reduction from baseline: 27%
  Loose Stool % Reduction from baseline: 37%
  Pain Score % Reduction from baseline: 35%
  Total AE % of patients reporting AEs: 27%
  Urgency % Reduction from baseline: 41%
  Vision % of patients reporting AEs: 5.4%
Irritable bowel syndrome [1]; [5]
  Constipation % of patients reporting AEs corrected for placebo: 4.7%
  Dry Mouth % of patients reporting AEs corrected for placebo: 6.5%
  Global Rating % Reduction from baseline corrected for placebo: 0%
  Loose Stool % Reduction from baseline corrected for placebo: 4%
  Pain Score % Reduction from baseline corrected for placebo: 5%
  Total AE % of patients reporting AEs corrected for placebo: 3%
  Urgency % Reduction from baseline corrected for placebo: 17%
  Vision % of patients reporting AEs corrected for placebo: 4.3%
  Constipation % of patients reporting AEs: 10.5%
  Dry Mouth % of patients reporting AEs: 14.2%
  Global Rating % Reduction from baseline: 29%
  Loose Stool % Reduction from baseline: 37%
  Pain Score % Reduction from baseline: 43%
  Total AE % of patients reporting AEs: 28%
  Urgency % Reduction from baseline: 40%
  Vision % of patients reporting AEs: 4.3%
Irritable bowel syndrome [1]; [6]
  Constipation % of patients reporting AEs corrected for placebo: 9.4%
  Dry Mouth % of patients reporting AEs corrected for placebo: 20.8%
  Global Rating % Reduction from baseline corrected for placebo: 2%
  Loose Stool % Reduction from baseline corrected for placebo: 14%
  Pain Score % Reduction from baseline corrected for placebo: 1%
  Total AE % of patients reporting AEs corrected for placebo: 15%
  Urgency % Reduction from baseline corrected for placebo: 27%
  Vision % of patients reporting AEs corrected for placebo: 3.3%
  Constipation % of patients reporting AEs: 15.2%
  Dry Mouth % of patients reporting AEs: 28.5%
  Global Rating % Reduction from baseline: 31%
  Loose Stool % Reduction from baseline: 47%
  Pain Score % Reduction from baseline: 39%
  Total AE % of patients reporting AEs: 40%
  Urgency % Reduction from baseline: 50%
  Vision % of patients reporting AEs: 3.3%
Irritable bowel syndrome [1]; [7]
  key measures of Pain Score and Global Rating: no effects were seen
  number of adverse effects: marked increase with dose
Irritable bowel syndrome [1]; both controlled release od studies (Clinical Studies 1 and 2), higher doses
  efficacy measures of Loose Stool and Urgency: improvements
Irritable bowel syndrome [2]; [8]
  Constipation % of patients reporting AEs corrected for placebo: 3.4%
  Dry Mouth % of patients reporting AEs corrected for placebo: 0.3%
  Global Rating % Reduction from baseline corrected for placebo: 9%
  Loose Stool % Reduction from baseline corrected for placebo: 8%
  Pain Score % Reduction from baseline corrected for placebo: 10%
  Total AE % of patients reporting AEs corrected for placebo: −4%
  Urgency % Reduction from baseline corrected for placebo: 11%
  Vision % of patients reporting AEs corrected for placebo: −2.2%
  Constipation % of patients reporting AEs: 6.3%
  Dry Mouth % of patients reporting AEs: 16%
  Global Rating % Reduction from baseline: 27%
  Loose Stool % Reduction from baseline: 16%
  Pain Score % Reduction from baseline: 33%
  Total AE % of patients reporting AEs: 36%
  Urgency % Reduction from baseline: 36%
  Vision % of patients reporting AEs: 1.4%
Irritable bowel syndrome [2]; [9]
  Constipation % of patients reporting AEs corrected for placebo: 5.6%
  Dry Mouth % of patients reporting AEs corrected for placebo: 8.8%
  Global Rating % Reduction from baseline corrected for placebo: 11%
  Loose Stool % Reduction from baseline corrected for placebo: 22%
  Pain Score % Reduction from baseline corrected for placebo: 17%
  Total AE % of patients reporting AEs corrected for placebo: −3%
  Urgency % Reduction from baseline corrected for placebo: 17%
  Vision % of patients reporting AEs corrected for placebo: −0.1%
  Constipation % of patients reporting AEs: 5.6%
  Dry Mouth % of patients reporting AEs: 24.5%
  Global Rating % Reduction from baseline: 29%
  Loose Stool % Reduction from baseline: 30%
  Pain Score % Reduction from baseline: 40%
  Total AE % of patients reporting AEs: 37%
  Urgency % Reduction from baseline: 42%
  Vision % of patients reporting AEs: 3.5%
Irritable bowel syndrome [2]; [10]
  Constipation % of patients reporting AEs corrected for placebo: 8.4%
  Dry Mouth % of patients reporting AEs corrected for placebo: 33.9%
  Global Rating % Reduction from baseline corrected for placebo: 14%
  Loose Stool % Reduction from baseline corrected for placebo: 44%
  Pain Score % Reduction from baseline corrected for placebo: 13%
  Total AE % of patients reporting AEs corrected for placebo: 20%
  Urgency % Reduction from baseline corrected for placebo: 32%
  Vision % of patients reporting AEs corrected for placebo: 4.2%
  Constipation % of patients reporting AEs: 11.3%
  Dry Mouth % of patients reporting AEs: 49.6%
  Global Rating % Reduction from baseline: 32%
  Loose Stool % Reduction from baseline: 52%
  Pain Score % Reduction from baseline: 36%
  Total AE % of patients reporting AEs: 60%
  Urgency % Reduction from baseline: 57%
  Vision % of patients reporting AEs: 7.8%
Irritable bowel syndrome [2]; immediate release tid study, all three doses
  all four efficacy measures (Pain Score, Loose Stool, Urgency and Global Rating): marked improvements
[3]
  darifenacin plasma concentration (FIG. 1): periodic ‘peaking’ of the darifenacin plasma concentration above that of the controlled release curve
